Series [1] in a line: Formation of adducts with MGO, kinetic study by HPLC. To be noted: compound 10 mM, MGO 20 mM, 37° C., after 15 min of incubation. It is filed as physicochemical. The procedure:
The compounds to be tested are incubated at 37° C. in the presence of MGO or of MDA. A kinetic study aiming to report on the formation of adducts with the MGO or MDA is then carried out via HPLC analysis.
The compounds to be tested (30 μmol) are dissolved in PBS (1.5 mL). An aqueous solution (qsp 1.25 mL) of MGO at 40% in water (250 μmol) is then prepared and in parallel, MDA bis-(diOEt)-acetal (250 μmol) is set to react with a solution of HCl 1N (2 eq) in water (qsp 1.25 mL) for 1 h at room temperature. An aqueous solution of NaOH 0.05N is also required to neutralise the reaction medium (5 mL).
The solution of the compound to be tested (625 μL—final concentration in the medium=10 mM) is then set to react with the solution of MGO or of MDA prepared extemporaneously (125 μL—final concentration in the medium=20 mM) in the presence of NaOH 0.05 N (0.5 mL).
The various mixtures are then incubated in the oven at 37° C. for 24 h.
A sampling of each mixture (100 μL) is taken at regular intervals of time (0.25; 0.5; 1; 5 and 24 h) and stored at −20° C. in order to stop the reaction. After dilution in a MeCN/H2O 98:2 mixture at room temperature, the HPLC analysis is carried out on a Shimadzu LCMS-2020 apparatus (UV chromatogram at 190 nm and mass spectrum in positive electrospray ionisation mode (ESI+)) after separation on the Waters Acquity column using a gradient of solvents H2O+HCOOH 0.1%/MeCN+HCOOH 0.1% (98/2 for 2 min, then 55/45 for 2 min and 45/55 for 3 min) with a flow rate of 0.3 mL/min at 40° C. and an injection of volume of 1 (“detection mode: scan, interface voltage: tuning file, DL voltage: 100 V, Q-array DC: 40 V, Q-array RF: 40 V”). A blank is first of all carried out using a solution containing the reaction medium without scavenger. Then, a free scavenger solution at 10 mM is used as a negative control and the carnosine as a reference of the literature. The proportion of adducts formed with the MGO or MDA (generally, tR=4.1 to 6.8 min) is then measured in relation to the quantity of remaining free scavenger (generally, tR=0.8 to 4.6 min) after measurement of the area under the curve of the corresponding peaks on the UV spectrum (measurements taken for a representative sample).

A short description of series [2]: ORACFL test (Oxygen Radical Absorbance Capacity) using fluorescein/AAPH. It is filed as physicochemical. To be noted: compounds at 10 μM; mean ± SEM of three independent experiments in triplicate. The protocol: The antioxidant properties of the compounds according to the invention were evaluated using a ORACFL test using fluorescein (J. Agric. Food Chem., 2004 52, 48-54; J. Agric. Food Chem., 2005, 53, 4290-4302). As such, peroxide radicals, generated in the presence of AAPH (2,2′-azobis(2-methylpropionamidine)dihydrochloride) at 37° C., react with this fluorescent sensor in order to give a non-fluorescent product. The protective effect of the test compounds can then be determined by following the decay curve of the fluorescence of the fluorescein over time and be measuring the area under the curve (AUC) of the sample in relation to that of a control corresponding to an absence of antioxidant.
The trolox (6-hydroxy-2,5,7,8-tetramethylchroman-2-carboxylic acid), a water-soluble analogue of vitamin E, is used as a standard for calculating the antioxidant capacity (ORACFL) of the compounds tested at 10 μM, expressed in […] of tested compound. This value is as such obtained using the straight-line calibration equation giving the area under the curve according to the various concentrations of trolox (Bioorg. Med. Chem., 2015, 23, 1135-1148) (FIG. 11).
A solution of fluorescein (FL) (12 nM; 150 μL) is introduced into a black 96-well plate (Dutscher, Brumath, France). The compounds to be tested (1-20 μM; 25 μL) or trolox (1-50 μM; 25 μL) dissolved in D-PBS are added into each well. After equilibration of the plate during an incubation at 37° C. for a minimum of 30 min, the radical reactions are initiated using a solution of AAPH prepared extemporaneously (30 mM; 25 μL). The fluorescence (λEx: 485 nm; λEm: 520 nm) is measured every 90 seconds for 60 cycles using a temperature-controlled Tecan Infinite® 200 PRO microplate reader (measurements taken in triplicates during three independent experiments).

Series [3] is described as follows: Cu2+ chelating properties by UV/Visible light spectrophotometry (murexide). The series is classed as physicochemical. To be noted: 0.02-2 mM compound, CuSO4 0.25 mM solution, Hexamine buffer pH 5, RT 10 min. The procedure:
J. Mol. Sci., 2009, 10, 5485-5497; Molecules, 2012, 17, 13457-13472). […] A Hexamine buffer 0.01 M/KCl 0.01 M (qsp 200 mL) of which the pH is adjusted to 5 using a solution of HCl 1N is first of all prepared. Solutions of CuSO4.5H2O at 0.5 mM (20 mL) and 0.25 mM (100 mL) are then carried out in this buffer, with the first being used to obtain the calibration curve. An aqueous solution of murexide at 1 mM must also be prepared extemporaneously (10 mL) as well as a stock solution of the compounds to be tested at 4.2 mM in Hexamine buffer 0.01 M/KCl 0.01 M or in a buffer and MeOH 75/25 mixture (6.2 mL). Various concentrations of the compounds to be tested are distributed in Hexamine buffer 0.01M/KCl 0.01M (pH=5) (Table 5) or in a buffer and MeOH 75/25 mixture in tubes for hemolysis (Table 6). The solution of CuSO4.5H2O at 0.25 mM (1 mL) is then added and this is allowed to incubate at RT for 10 min. Finally, the aqueous solution of murexide at 1 mM (0.1 mL) is introduced and is again allowed to incubate at RT for 1 min. The absorbances are then measured at 485 nm ([…]) and 520 nm ([…]) by UV/Visible light spectrophotometry (V-650 JASCO spectrometer) (measurements taken in triplicates). […] After introduction of the aqueous solution of murexide at 1 mM (0.1 mL), this is allowed to incubate at RT for 1 min and the absorbances are finally measured at 485 nm ([…]) and 520 nm ([…]) by UV/Visible light spectrophotometry.

For series [4], the system named is low-density lipoproteins (LDLs). Put plainly: Antiradical properties: inhibition of lipid peroxidation in AAPH-induced oxidation of LDLs. It is filed as biochemical. The protocol:
The antiradical properties of the various compounds are determined by inhibition of the lipid peroxidation in the in vitro model of the oxidation of the low-density lipoproteins (LDLs) (Free Radic. Biol. Med., 1992, 13, 341-390). The lipid peroxidation is initiated by the attack by free radicals of a double bond of a polyunsaturated fatty acid present in the LDLs. […] Once initiated, the oxidation of the LDLs is a chain reaction of lipid peroxidation generated by the free radicals. The oxidation in vitro of the LDLs is induced at 37° C. by the adding of the water-soluble compound 2,2′-Azobis(2-methylpropionamidine)dihydrochloride (AAPH), which generates free radicals during the spontaneous thermal breakdown thereof
Briefly, the oxidation, carried out in a 96-well plate, is induced at 37° C. by adding 20 μL of a solution of AAPH at 2 mM in D-PBS at 160 μL of LDL (100 μg/mL) in the presence or absence of 20 μL of the various solutions of the compounds to be tested dissolved in D-PBS (0.1 to 100 μM in final concentrations). The LDLs alone without adding AAPH are used as a negative control. Each oxidation is carried out in double. During the oxidation, the formation of the conjugated dienes is followed by the measurement of the optical density at 234 nm every 10 minutes for 8 h at 37° C. using a temperature-controlled TECAN spectrophotometer. The vitamin E (α-tocopherol) which is a powerful antioxidant recognised in this in vitro model is used as a reference molecule (J. Nutr. Biochem., 2012, 23, 845-51).

Series [5] concerns murine endothelial brain cells (bEnd.3). Put plainly: Cytotoxicity, cellular viability (CCK-8/WST-8) on bEnd.3. The series is classed as cell-based. To be noted: mouse. The procedure:
(§1) The cellular viability is evaluated by a colorimetric method based on the detection of the conversion of a salt of the tetrazolium (WST-8) by the metabolically active cells (CCK-8 kit, Sigma, Lyons, France) (Molecules, 2014, 19(8), 12048-12064; J. Pharmacol. Toxicol. Methods., 2007, 56(1), 58-62). Living cells have mitochondrial dehydrogenases that reduce the WST-8 (2-(2-methoxy-4-nitrophenyl)-3-(4-nitrophenyl)-5-(2,4-disulfophenyl)-2H-tetrazolium), monosodium salt) to formazan of an orange colour, which dissolves directly in the culture medium in the presence of 1-Methoxy PMS (1-methoxy-5-methylphenazinium methyl sulphate). After an incubation for 1 h at 37° C., the absorbance of the formazan is measured at 450 nm. The absorbance is directly proportional to the number of living cells.
(§2) Briefly, the cells are inoculated in 96-well plates at a rate of 5.10^3 cells per well in 100 μL of the suitable medium until subconfluence. The cells are then washed with D-PBS, then treated with various concentrations (10 μM, 100 μM) of the products to be tested in triplicates for 24 and 48 h. A positive control is carried out with 10% of DMSO. The CCK-8 (10 μL) solution is then added to each well for an incubation for 1 h at 37° C. The measurement of the absorbance is taken at 450 nm using a Perkin Elmer 2103 Envision® microplate reader.
(§3) The viability of the cells is expressed as a % of the control (untreated cells) by the mean±standard deviation of triplicates forming a representative experiment or of three independent experiments conducted in triplicate.

The subject of series [6] is rat pheochromocytoma cells, treated as neuronal cells (PC12). As to the kind of experiment: Cytotoxicity, cellular viability (CCK-8/WST-8) on PC12. The series is classed as cell-based. Particulars: rat. The protocol:
as §1, §2, §3

The test system of series [7] is human fibroblasts (MRC-5). Put plainly: Cytotoxicity, cellular viability (CCK-8/WST-8) on MRC-5. It is filed as cell-based. The protocol: as §1, §2, §3

Regarding `Cc1c(O)c(=O)ccn1CCC(=O)NCCCCC(N)CN` (stereo not shown) [Compound 37i, N-(5,6-diaminohexyl)-3-(3-hydroxy-2-methyl-4-oxopyridin-1(4H)-yl)propanamide], in series [1], the “disappearance of the free scavenger to the benefit of adducts with the MGO” value was “almost total disappearance of the free scavenger”. This compound also came in with an ORACFL in series [2] of 1.24 ± 0.02 μmol TE/μmol. The “Cu^2+ chelating properties (complexation of the Cu^2+)” value (shortened to “Cu^2+ chelating properties”) in series [3] is given as “most active”.

For the compound `Cc1c(O)c(=O)ccn1CCCNC(=O)CCC(N)CN` (stereo not shown) [Compound 37j, 4,5-diamino-N-(3-(3-hydroxy-2-methyl-4-oxopyridin-1(4H)-yl)propyl)pentanamide], the “disappearance of the free scavenger to the benefit of adducts with the MGO” value in series [1] is given as “almost total disappearance of the free scavenger”. In series [2], this compound had an ORACFL of 1.01 ± 0.06 μmol TE/μmol. The “Cu^2+ chelating properties” value in series [3] is “most active”.

In the case of `COc1cc(/C=C/C(=O)NCCCCC(N)CN)ccc1O` (stereo not shown) [Compound 29b, (E)-N-(5,6-diaminohexyl)-3-(4-hydroxy-3-methoxyphenyl)acrylamide], the “antioxidant / pro-oxidant behaviour” value is “antioxidants” in series [4] (concentrations ranging from 25 to 100) and “pro-oxidants” in series [4] (lower concentrations, 0.1 to 10 μM). In addition, the “viability of the cells as a percentage of the untreated cells” value in series [5] (24 h, 10 μM) came to 92%; in series [5] (24 h, 100 μM) it was 86%; in series [5] (48 h, 10 μM), 92%; in series [5] (48 h, 100 μM), 90%; in series [6] (24 h, 10 μM), 108%; in series [6] (24 h, 100 μM), 112%. Moreover, the “viability of the cells as a percentage of the untreated cells” value in series [6] (48 h, 10 μM) is recorded as 95%; in series [6] (48 h, 100 μM) it was 97%; in series [7] (MRC-5, 10 μM, 24 h of treatment), 106%; in series [7] (MRC-5, 10 μM, 48 h of treatment), 95%; in series [7] (MRC-5, 100 μM, 24 h of treatment), 102%; in series [7] (MRC-5, 100 μM, 48 h of treatment) it was 100%. Further, the ORACFL in series [2] is on record as 1.50 ± 0.10 μmol TE/μmol. The “Cu^2+ chelating properties” value in series [3] was “poor results”.

(Values after patent US10464920B2, “Vicinal primary diamines associated with metal and/or free radical chelation motifs, and active against carbonyl and oxidative stress, and use thereof” (UNIVERSITE AMIENS PICARDIE JULES VERNE, priority 2015, dated 2019).)
